Measurements: PubChem BioAssay (NCI)
“And” between values parts separate entries of the source, which are not always exact repeats. Identical values can stand only once.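 Step 1: Grow cells in 96-well plates. Step 2: Expose to compound for 48 hours at 5 concentrations. Step 3: Interpolate endpoints linearly; if unreached, use highest concentration. The concentration for 50% growth inhibition is given as GI50. At the TGI there is no net growth.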

Assays:
Test in all cases: NCI-60 cell line screen, 48 h
NCI/ADR-RES ovarian = test system: NCI/ADR-RES ovarian
SF-268 CNS = test system: SF-268 CNS
MCF7 breast = test system: MCF7 breast
A549 NSCLC = test system: A549 NSCLC
SW-620 colon = test system: SW-620 colon
OVCAR-3 ovarian = test system: OVCAR-3 ovarian
MOLT-4 leukemia = test system: MOLT-4 leukemia
ACHN renal = test system: ACHN renal
T-47D breast = test system: T-47D breast
CAKI-1 renal = test system: CAKI-1 renal

Structure (SMILES)	GI50 (NCI/ADR-RES ovarian)	TGI (NCI/ADR-RES ovarian)	TGI (SF-268 CNS)	TGI (MCF7 breast)	GI50 (A549 NSCLC)	TGI (A549 NSCLC)	GI50 (SW-620 colon)	TGI (SW-620 colon)	GI50 (OVCAR-3 ovarian)	GI50 (MOLT-4 leukemia)	TGI (MOLT-4 leukemia)	TGI (ACHN renal)	GI50 (T-47D breast)	TGI (T-47D breast)	TGI (CAKI-1 renal)	GI50 (SF-268 CNS)	GI50 (MCF7 breast)	TGI (OVCAR-3 ovarian) [µM]	GI50 (ACHN renal)	GI50 (CAKI-1 renal)
c1ccc2c(c1)[nH]c1c2cc[n+]2cc3c(cc12)CCCC3	93.8 µM	> 100 µM	12.8 µM and 18.3 µM	10.9 µM and 11 µM	4.88 µM	24.6 µM and 30.8 µM	2.35 µM	11.6 µM and 16.2 µM	2.91 µM	3.74 µM	13.7 µM and 3.73 µM	16.1 µM and 14.1 µM	2.47 µM	13.6 µM and 22.4 µM	36.2 µM and 32 µM	–	–	–	–	–
O=C(c1ccco1)c1c(C(F)(F)F)n([O-])c2ccc(C(F)(F)F)cc2[n+]1=O	0.257 µM	0.939 µM	0.674 µM	0.872 µM	0.254 µM	0.7 µM	0.159 µM	0.338 µM	0.383 µM	0.0912 µM	0.313 µM	0.362 µM	0.344 µM	1.75 µM	0.49 µM	0.266 µM	0.307 µM	0.835	0.168 µM	0.224 µM
CCNC(=O)/C(=C/c1ccc(OC)cc1)c1cc(OC)c(OC)c(OC)c1	–	> 28 µM	> 100 µM	> 100 µM	–	> 100 µM	–	> 100 µM	–	–	> 100 µM	> 100 µM	–	> 100 µM	> 100 µM	–	–	15	–	–
COc1ccc(-c2nn(-c3cccc(Cl)c3)cc2-c2cc(-c3ccccc3)[nH]c(=O)c2C#N)cc1	2.14 µM	36 µM	> 50 µM	> 50 µM	2.26 µM	> 50 µM	9.23 µM	> 50 µM	2.84 µM	42.3 µM	> 50 µM	10.7 µM	1.64 µM	7.43 µM	6.09 µM	2.59 µM	9.02 µM	16.8	1.83 µM	1.3 µM
CO[C@H]1Nc2c(ccc(C)c2O)C(=O)N2C=C(/C=C/C(N)=O)C[C@@H]12	–	0.085 µM	0.411 µM	8.05 µM	–	> 72.3 µM	–	17.7 µM	–	–	6.29 µM	–	–	> 7.99 µM	0.211 µM	–	–	0.192	–	–
O=C(/C=C/c1ccccc1)c1ccccc1	–	> 10 µM	> 10 µM	> 10 µM	–	> 10 µM	–	> 10 µM	–	–	> 3.16 µM	> 10 µM	–	> 10 µM	> 10 µM	–	–	> 10	–	–
COc1ccc(-c2ccc3c(N4CCOC[C@@H]4C)nc(N4CCOC[C@@H]4C)nc3n2)cc1CO	0.013 µM and 0.0584 µM	–	> 3.31 µM and 51.1 µM	> 3.27 µM and 1.34 µM	0.0052 µM and 0.0253 µM	1.78 µM and 0.57 µM	0.0078 µM and 0.0537 µM	> 100 µM	0.00504 µM and 0.0334 µM	0.00584 µM and 0.0488 µM	> 6.64 µM and 37.1 µM	> 100 µM	0.00158 µM and < 0.01 µM	0.00844 µM and 0.0544 µM	5.15 µM	0.00537 µM and 0.0359 µM	0.00432 µM and < 0.0133 µM	> 34.6	0.00495 µM and 0.0209 µM	0.00473 µM and 0.0302 µM
Cc1cc(Nc2nc(-c3cn(-c4ccc(Cl)cc4)nn3)nc3ccccc23)n[nH]1	1.58 µM	> 50 µM	> 50 µM	> 50 µM	11.4 µM	> 50 µM	12.5 µM	> 50 µM	10.5 µM	22 µM	> 50 µM	> 50 µM	13.1 µM	42.3 µM	14.7 µM	14.6 µM	27 µM	23.4	3.62 µM	2.31 µM
O=C(NCc1ccc(Cn2c(=O)sn(-c3ccccc3)c2=O)cc1)OCc1ccc2cccc(O)c2n1	1.7 µM	8.87 µM	3.04 µM	2.12 µM	1.51 µM	3.87 µM	0.301 µM	0.951 µM	0.363 µM	0.785 µM	> 24.3 µM	1.47 µM	1.49 µM	4.59 µM	1.84 µM	1.55 µM	0.331 µM	1.36	0.393 µM	0.479 µM
CN(C)C(=S)SSC(=S)N(C)C	–	30.4 µM and 36 µM	29 µM and > 100 µM and 32.8 µM	22.7 µM and 39.3 µM and > 93.5 µM	17.2 µM and 3.51 µM and 19.7 µM	45.9 µM and > 100 µM and 48.1 µM	–	22.8 µM and 22.1 µM and > 56.6 µM	–	–	75.1 µM and 37.5 µM and 23.8 µM	30.2 µM and > 100 µM and 37.1 µM	15.9 µM	41.7 µM and 39 µM and 88.2 µM	31.4 µM and > 100 µM and 40.1 µM	15 µM and 42.7 µM and 16.1 µM	0.478 µM	–	15.7 µM and 55.6 µM and 19.7 µM	15.9 µM and 61.5 µM and 21.1 µM
COc1ccc(-c2nc(-c3cc(OC)cc(OC)c3)[nH]c2-c2ccc(OC)cc2)cc1	9.76 µM	> 100 µM	> 100 µM	> 100 µM	5.31 µM	> 100 µM	54.1 µM	> 100 µM	5.95 µM	2.8 µM	8.15 µM	> 100 µM	2.36 µM	9.25 µM	> 100 µM	> 100 µM	3.77 µM	> 100	5.56 µM	6.24 µM
O=C1CCCN1c1ccccc1I(=O)=O	> 100 µM	> 100 µM	> 100 µM	> 100 µM	> 100 µM	> 100 µM	> 100 µM	> 100 µM	> 100 µM	> 100 µM	> 100 µM	> 100 µM	91.4 µM	> 100 µM	> 100 µM	> 100 µM	> 100 µM	> 100	> 100 µM	> 100 µM
Nc1cc(Br)c(-c2nnc(CCC(=O)c3nc4ccccc4[nH]3)o2)c(Br)c1	22.6 µM	> 100 µM	81.5 µM	> 100 µM	27.6 µM	> 100 µM	3.28 µM	> 100 µM	2.6 µM	4.94 µM	> 100 µM	> 100 µM	23.4 µM	> 100 µM	> 100 µM	5.14 µM	3.06 µM	6.98	48 µM	19.8 µM
COc1cc2c(Nc3cc(Cl)c(OC)c(Cl)c3)c(C#N)cnc2cc1OCCCN1CCN(C)CC1	2.46 µM	9.55 µM	6.92 µM	12.6 µM	1.5 µM	4.12 µM	2.18 µM	6.03 µM	1.65 µM	1.67 µM	7.92 µM	3.58 µM	2.02 µM	9.65 µM	15.1 µM	1.9 µM	2.58 µM	4.49	0.239 µM	0.606 µM
